The test system of this assay is MV-4-11 cells. Nature of the assay: Gene expression microarray analysis (Affymetrix PrimeView) and GSEA. The class given is cell-based, human. Details: RFU PODN (11730768_x_at) / Fold change /veh PODN (11730768_x_at) / RFU LINC00158 (11744669_a_at) / Fold change /veh LINC00158 (11744669_a_at) / RFU DUSP10 (11751237_a_at) / Fold change /veh DUSP10 (11751237_a_at) / RFU ID3 (11757404_x_at) / Fold change /veh ID3 (11757404_x_at) / RFU PLEKHG5 (11737974_s_at) / Fold change /veh PLEKHG5 (11737974_s_at) / RFU LRRC4B (11730491_at) / Fold change /veh LRRC4B (11730491_at) / RFU GIMAP4 (11747438_a_at) / Fold change /veh GIMAP4 (11747438_a_at) / RFU KRT8 (11758183_x_at) / Fold change /veh KRT8 (11758183_x_at) / RFU CNN1 (11734310_a_at) / Fold change /veh CNN1 (11734310_a_at) / RFU VPS37D (11726825_at) / Fold change /veh VPS37D (11726825_at) / RFU C10orf10 (11716522_x_at) / Fold change /veh C10orf10 (11716522_x_at) / RFU KIR2DL2 /// KIR2DL4 /// KIR2DL5A /// KIR2DL5B /// KIR2DS1 /// KIR2DS2 /// KIR2DS3 /// KIR2DS4 /// KIR3DL3 /// KIR3DL3 /// KIR3DS1 (11738374_at) / Fold change /veh KIR2DL2 /// KIR2DL4 /// KIR2DL5A /// KIR2DL5B /// KIR2DS1 /// KIR2DS2 /// KIR2DS3 /// KIR2DS4 /// KIR3DL3 /// KIR3DL3 /// KIR3DS1 (11738374_at) / RFU C1QL1 (11718748_at) / Fold change /veh C1QL1 (11718748_at) / RFU TMPRSS4 (11747572_a_at) / Fold change /veh TMPRSS4 (11747572_a_at) / RFU HAMP (11756126_x_at) / Fold change /veh HAMP (11756126_x_at) / RFU RNFT2 (11725882_a_at) / Fold change /veh RNFT2 (11725882_a_at) / RFU NR4A2 (11747474_a_at) / Fold change /veh NR4A2 (11747474_a_at) / RFU ABCC12 (11746883_a_at) / Fold change /veh ABCC12 (11746883_a_at) / RFU TMEM136 (11760407_x_at) / Fold change /veh TMEM136 (11760407_x_at) / RFU CLDN22 /// WWC2 (11732394_at) / Fold change /veh CLDN22 /// WWC2 (11732394_at) / RFU HLA-DPB1 (11760878_x_at) / Fold change /veh HLA-DPB1 (11760878_x_at) / RFU SPINT1 (11716480_a_at) / Fold change /veh SPINT1 (11716480_a_at) / RFU GAP43 (11754022_s_at) / Fold change /veh GAP43 (11754022_s_at) / RFU A4GNT (11735810_at) / Fold change /veh A4GNT (11735810_at) / RFU PRB3 (11715151_x_at) / Fold change /veh PRB3 (11715151_x_at) / RFU TUBB4B (11761932_at) / Fold change /veh TUBB4B (11761932_at) / RFU CAPN14 (11732068_a_at) / Fold change /veh CAPN14 (11732068_a_at) / RFU TMCC2 (11721928_a_at) / Fold change /veh TMCC2 (11721928_a_at) / RFU IRGQ (11745062_a_at) / Fold change /veh IRGQ (11745062_a_at) / RFU FAM174B (11720279_a_at) / Fold change /veh FAM174B (11720279_a_at) / RFU TMPRSS4 (11748680_a_at) / Fold change /veh TMPRSS4 (11748680_a_at) / RFU FAM212B (11763350_a_at) / Fold change /veh FAM212B (11763350_a_at) / RFU PLEKHG5 (11743358_a_at) / Fold change /veh PLEKHG5 (11743358_a_at) / RFU ZSCAN30 (11745921_a_at) / Fold change /veh ZSCAN30 (11745921_a_at) / RFU CMKLR1 (11741424_a_at) / Fold change /veh CMKLR1 (11741424_a_at) / RFU LOC101060620 /// MAPK8IP1 (11723275_at) / Fold change /veh LOC101060620 /// MAPK8IP1 (11723275_at) / RFU SPTSSB (11747773_x_at) / Fold change /veh SPTSSB (11747773_x_at) / RFU PRSS12 (11739890_at) / Fold change /veh PRSS12 (11739890_at) / RFU BIN1 (11741810_x_at) / Fold change /veh BIN1 (11741810_x_at) / RFU WNT11 (11732464_a_at) / Fold change /veh WNT11 (11732464_a_at) / RFU C10orf10 (11716521_a_at) / Fold change /veh C10orf10 (11716521_a_at) / RFU C5orf56 (11738089_at) / Fold change /veh C5orf56 (11738089_at) / RFU CYB561 (11721691_x_at) / Fold change /veh CYB561 (11721691_x_at) / RFU ANKRD19P (11752326_a_at) / Fold change /veh ANKRD19P (11752326_a_at) / RFU OR2T12 /// OR2T33 /// OR2T8 (11738714_s_at) / Fold change /veh OR2T12 /// OR2T33 /// OR2T8 (11738714_s_at) / RFU VCAN (11748164_a_at) / Fold change /veh VCAN (11748164_a_at) / RFU JSRP1 (11732532_at) / Fold change /veh JSRP1 (11732532_at) / RFU KRTAP10-11 (11738290_x_at) / Fold change /veh KRTAP10-11 (11738290_x_at) / RFU MYO3A (11730013_a_at) / Fold change /veh MYO3A (11730013_a_at) / RFU EBF3 (11725865_a_at) / Fold change /veh EBF3 (11725865_a_at) / RFU CAMK2N1 (11719241_x_at) / Fold change /veh CAMK2N1 (11719241_x_at) / RFU C5orf56 (11738088_a_at) / Fold change /veh C5orf56 (11738088_a_at) / RFU OLFML3 (11715873_a_at) / Fold change /veh OLFML3 (11715873_a_at) / RFU LOC100653217 /// NTM (11731650_a_at) / Fold change /veh LOC100653217 /// NTM (11731650_a_at) / RFU MAPK11 (11762145_a_at) / Fold change /veh MAPK11 (11762145_a_at) / RFU FIZ1 (11724087_x_at) / Fold change /veh FIZ1 (11724087_x_at) / RFU OASL (11726364_x_at) / Fold change /veh OASL (11726364_x_at) / RFU SOX15 (11748057_x_at) / Fold change /veh SOX15 (11748057_x_at) / RFU CD79A (11719716_a_at) / Fold change /veh CD79A (11719716_a_at) / RFU HIST1H1D (11736915_at) / Fold change /veh HIST1H1D (11736915_at) / RFU CASKIN2 (11723855_a_at) / Fold change /veh CASKIN2 (11723855_a_at) / RFU LOC730098 (11760151_x_at) / Fold change /veh LOC730098 (11760151_x_at) / RFU OR4N2 (11742367_at) / Fold change /veh OR4N2 (11742367_at) / RFU PRRT2 (11749266_a_at) / Fold change /veh PRRT2 (11749266_a_at) / RFU SNX32 (11753110_a_at) / Fold change /veh SNX32 (11753110_a_at) / RFU CDHR5 (11726645_a_at) / Fold change /veh CDHR5 (11726645_a_at) / RFU RCAN1 (11760418_a_at) / Fold change /veh RCAN1 (11760418_a_at) / RFU FAM167A (11723789_a_at) / Fold change /veh FAM167A (11723789_a_at) / RFU FAM26E (11764081_at) / Fold change /veh FAM26E (11764081_at) / RFU ISYNA1 (11749810_s_at) / Fold change /veh ISYNA1 (11749810_s_at) / RFU ACY1 (11761880_at) / Fold change /veh ACY1 (11761880_at) / RFU 11764098_at / Fold change /veh 11764098_at / RFU SAMD14 (11745864_x_at) / Fold change /veh SAMD14 (11745864_x_at) / RFU NPB (11741838_a_at) / Fold change /veh NPB (11741838_a_at) / RFU TMPRSS6 (11731388_a_at) / Fold change /veh TMPRSS6 (11731388_a_at) / RFU KRTAP10-2 (11738614_at) / Fold change /veh KRTAP10-2 (11738614_at) / RFU ARHGAP8 /// PRR5-ARHGAP8 (11727945_x_at) / Fold change /veh ARHGAP8 /// PRR5-ARHGAP8 (11727945_x_at) / RFU KRTAP5-7 /// NADSYN1 (11734609_at) / Fold change /veh KRTAP5-7 /// NADSYN1 (11734609_at) / RFU RASL12 (11751679_a_at) / Fold change /veh RASL12 (11751679_a_at) / RFU CDKN2B (11736163_a_at) / Fold change /veh CDKN2B (11736163_a_at) / RFU PRF1 (11729649_at) / Fold change /veh PRF1 (11729649_at) / RFU, ZNF638 /// ZNF638-IT1 / Fold change vs veh, ZNF638 /// ZNF638-IT1 / RFU, PANK3 / Fold change vs veh, PANK3 / RFU, SH3YL1 / Fold change vs veh, SH3YL1 / RFU, ZEB2 / Fold change vs veh, ZEB2 / RFU, NRIP1 / Fold change vs veh, NRIP1 / RFU, PTTG1IP / Fold change vs veh, PTTG1IP / RFU, CAPN2 / Fold change vs veh, CAPN2 / RFU, MED14 / Fold change vs veh, MED14 / RFU, SNORA58 / Fold change vs veh, SNORA58 / RFU, C1orf63 / Fold change vs veh, C1orf63 / RFU, LRRFIP1 / Fold change vs veh, LRRFIP1 / RFU, NDUFAF7 / Fold change vs veh, NDUFAF7 / RFU, SLC12A2 / Fold change vs veh, SLC12A2 / RFU, IBTK / Fold change vs veh, IBTK / RFU, ESF1 / Fold change vs veh, ESF1 / Fold change vs veh, TMEM50B / RFU, TAOK1 / Fold change vs veh, TAOK1 / RFU, ACBD3 / Fold change vs veh, ACBD3 / RFU, TMA16 / Fold change vs veh, TMA16 / RFU, RWDD3 / Fold change vs veh, RWDD3 / RFU, BCAT1 / Fold change vs veh, BCAT1 / RFU, EDEM3 / Fold change vs veh, EDEM3 / RFU, TMEM33 / Fold change vs veh, TMEM33 / RFU, WDR75 / Fold change vs veh, WDR75 / RFU, AHCTF1 / Fold change vs veh, AHCTF1 / RFU, TFRC / Fold change vs veh, TFRC / RFU, ZDHHC17 / Fold change vs veh, ZDHHC17 / RFU, NOM1 / Fold change vs veh, NOM1 / RFU, ARL8B / Fold change vs veh, ARL8B / RFU, ZBTB11 / Fold change vs veh, ZBTB11 / RFU, TAMM41 / Fold change vs veh, TAMM41 / RFU, KIAA1704 /// LOC100996395 / Fold change vs veh, KIAA1704 /// LOC100996395 / RFU, ING1 / Fold change vs veh, ING1 / RFU, TRMT61B / Fold change vs veh, TRMT61B / RFU, FUBP3 / Fold change vs veh, FUBP3 / RFU, TP53 / Fold change vs veh, TP53 / RFU, TNKS2 / Fold change vs veh, TNKS2 / RFU, ZFP14 / Fold change vs veh, ZFP14 / RFU, ACTR2 / Fold change vs veh, ACTR2 / RFU, PPP3R1 / Fold change vs veh, PPP3R1 / RFU, PIK3R1 / Fold change vs veh, PIK3R1 / RFU, HNRNPA1 / Fold change vs veh, HNRNPA1 / RFU, RNF170 / Fold change vs veh, RNF170 / RFU, ZNF28 / Fold change vs veh, ZNF28 / RFU, RNGTT / Fold change vs veh, RNGTT / RFU, OGT / Fold change vs veh, OGT / RFU, BRD1 / Fold change vs veh, BRD1 / RFU, MARS / Fold change vs veh, MARS / RFU, ZNF655 / Fold change vs veh, ZNF655 / RFU, FAHD1 / Fold change vs veh, FAHD1 / RFU, BDP1 / Fold change vs veh, BDP1 / RFU, LRRCC1 / Fold change vs veh, LRRCC1 / RFU, ARID1A / Fold change vs veh, ARID1A / RFU, ZNF146 / Fold change vs veh, ZNF146 / RFU, ZNF330 / Fold change vs veh, ZNF330 / RFU, GPN3 / Fold change vs veh, GPN3 / RFU, C9orf123 / Fold change vs veh, C9orf123 / RFU, N4BP2L2 / Fold change vs veh, N4BP2L2 / RFU, ARFIP1 / Fold change vs veh, ARFIP1 / RFU, FAM179B / Fold change vs veh, FAM179B / RFU, BCL10 / Fold change vs veh, BCL10 / RFU, UHRF1BP1L / Fold change vs veh, UHRF1BP1L / RFU, BET1 / Fold change vs veh, BET1 / RFU, CNOT2 / Fold change vs veh, CNOT2 / RFU, ZNF268 / Fold change vs veh, ZNF268 / Fold change vs veh, ZNF507 / RFU, DGCR2 / Fold change vs veh, DGCR2 / RFU, WDSUB1 / Fold change vs veh, WDSUB1 / Fold change vs veh, HSP90B1 /// MIR3652 / RFU, ADSS / Fold change vs veh, ADSS / RFU, GK / Fold change vs veh, GK / RFU, ZNF148 / Fold change vs veh, ZNF148 / RFU, TAF9 / Fold change vs veh, TAF9 / RFU, SLC1A5 / Fold change vs veh, SLC1A5 / RFU, SLMO2 / Fold change vs veh, SLMO2 / RFU, ABCC4 / Fold change vs veh, ABCC4 / RFU, LOC101060439 /// RAP1B / Fold change vs veh, LOC101060439 /// RAP1B / RFU, RFX7 / Fold change vs veh, RFX7 / RFU, GTPBP10 / Fold change vs veh, GTPBP10 / RFU, CNEP1R1 / Fold change vs veh, CNEP1R1 / RFU, BIVM-ERCC5 /// ERCC5 / Fold change vs veh, BIVM-ERCC5 /// ERCC5 / RFU, ILF3 / Fold change vs veh, ILF3 / RFU 11762660_at / Fold change /veh 11762660_at / RFU VCAN (11757783_s_at) / Fold change /veh VCAN (11757783_s_at) / RFU DDX43 (11728927_at) / Fold change /veh DDX43 (11728927_at) / RFU KRT8 (11758188_x_at) / Fold change /veh KRT8 (11758188_x_at) / RFU NKD1 (11759106_at) / Fold change /veh NKD1 (11759106_at) / RFU SRD5A1 (11742802_a_at) / Fold change /veh SRD5A1 (11742802_a_at) / RFU TPSAB1 /// TPSB2 (11721975_s_at) / Fold change /veh TPSAB1 /// TPSB2 (11721975_s_at) / RFU GSTM3 (11746129_a_at) / Fold change /veh GSTM3 (11746129_a_at) / RFU IL23R (11737362_x_at) / Fold change /veh IL23R (11737362_x_at) / RFU TMEM51 (11727254_a_at) / Fold change /veh TMEM51 (11727254_a_at) / RFU PIWIL2 (11732686_x_at) / Fold change /veh PIWIL2 (11732686_x_at) / RFU ORM1 (11744905_x_at) / Fold change /veh ORM1 (11744905_x_at) / RFU CCDC152 (11743942_at) / Fold change /veh CCDC152 (11743942_at) / RFU ECM1 (11717891_a_at) / Fold change /veh ECM1 (11717891_a_at) / RFU IL23R (11748794_a_at) / Fold change /veh IL23R (11748794_a_at) / RFU TNFAIP8L3 (11732012_x_at) / Fold change /veh TNFAIP8L3 (11732012_x_at) / RFU MBOAT4 (11741988_at) / Fold change /veh MBOAT4 (11741988_at) / RFU 11764193_at / Fold change /veh 11764193_at / RFU TMEM53 (11763286_at) / Fold change /veh TMEM53 (11763286_at) / RFU MAGEB2 (11727129_at) / Fold change /veh MAGEB2 (11727129_at) / RFU TMEM200A (11744735_a_at) / Fold change /veh TMEM200A (11744735_a_at) / RFU CCDC152 (11751479_a_at) / Fold change /veh CCDC152 (11751479_a_at) / RFU FAM211A (11726209_a_at) / Fold change /veh FAM211A (11726209_a_at) / RFU RGS16 (11746705_a_at) / Fold change /veh RGS16 (11746705_a_at) / RFU VCAN (11755009_s_at) / Fold change /veh VCAN (11755009_s_at) / RFU RHOB (11743442_s_at) / Fold change /veh RHOB (11743442_s_at) / RFU RGS16 (11720943_a_at) / Fold change /veh RGS16 (11720943_a_at) / RFU RGS16 (11720944_at) / Fold change /veh RGS16 (11720944_at) / RFU, VPS4B / Fold change vs veh, VPS4B / RFU, CREB1 / Fold change vs veh, CREB1 / RFU, DNAJC13 / Fold change vs veh, DNAJC13 / RFU, GNAQ / Fold change vs veh, GNAQ / RFU, CDK5R1 / Fold change vs veh, CDK5R1 / RFU, ZRANB3 / Fold change vs veh, ZRANB3 / RFU, CUL4A / Fold change vs veh, CUL4A / RFU, CCNY / Fold change vs veh, CCNY / RFU, UFL1 / Fold change vs veh, UFL1 / RFU, COG3 / Fold change vs veh, COG3 / RFU, DIAPH2 / Fold change vs veh, DIAPH2 / RFU, SKA2 / Fold change vs veh, SKA2 / RFU, AFF3 / Fold change vs veh, AFF3 / RFU, LMF1 / Fold change vs veh, LMF1 / RFU, IPO11 / Fold change vs veh, IPO11 / RFU, DFFB / Fold change vs veh, DFFB / RFU, FOXP1 / Fold change vs veh, FOXP1 / RFU, CARD8 / Fold change vs veh, CARD8 / RFU, STRN3 / Fold change vs veh, STRN3 / RFU, ADK / Fold change vs veh, ADK / RFU, RASSF2 / Fold change vs veh, RASSF2 / RFU, WIPF1 / Fold change vs veh, WIPF1 / RFU, LARP1B / Fold change vs veh, LARP1B / RFU, RASA1 / Fold change vs veh, RASA1 / RFU, RB1 / Fold change vs veh, RB1 / RFU, PPFIA1 / Fold change vs veh, PPFIA1 / RFU, MAT2A / Fold change vs veh, MAT2A / RFU, CCT5 / Fold change vs veh, CCT5 / RFU, WDR92 / Fold change vs veh, WDR92 / RFU, CUX1 / Fold change vs veh, CUX1 / RFU, TTC7A / Fold change vs veh, TTC7A / RFU, TMEM135 / Fold change vs veh, TMEM135 / RFU, DEPTOR / Fold change vs veh, DEPTOR / RFU, CPM / Fold change vs veh, CPM / RFU, DNAJB6 / Fold change vs veh, DNAJB6 / RFU, CACNA2D3 / Fold change vs veh, CACNA2D3 / RFU, DTX4 / Fold change vs veh, DTX4 / RFU, TFCP2 / Fold change vs veh, TFCP2 / RFU, GMCL1 /// GMCL1P1 / Fold change vs veh, GMCL1 /// GMCL1P1 / RFU, AEBP2 / Fold change vs veh, AEBP2 / RFU, SNHG1 /// SNORD22 /// SNORD25 /// SNORD26 /// SNORD27 /// SNORD28 /// SNORD29 /// SNORD31 / Fold change vs veh, SNHG1 /// SNORD22 /// SNORD25 /// SNORD26 /// SNORD27 /// SNORD28 /// SNORD29 /// SNORD31 / Fold change (Aza/veh), C12orf56 (ProbeSet 11735607_a_at) / Fold change (ACY-1035/veh), C12orf56 (ProbeSet 11735607_a_at) / Fold change (Aza/veh), FGFR1OP (ProbeSet 11751329_s_at) / Fold change (ACY-1035/veh), FGFR1OP (ProbeSet 11751329_s_at) / Fold change (Aza/veh), VPS36 (ProbeSet 11739960_a_at) / Fold change (ACY-1035/veh), VPS36 (ProbeSet 11739960_a_at) / RFU SYPL1 (11715823_x_at) / Fold change /veh SYPL1 (11715823_x_at) / RFU IGFBP7 (11715501_s_at) / Fold change /veh IGFBP7 (11715501_s_at) / RFU REEP3 (11722064_at) / Fold change /veh REEP3 (11722064_at) / RFU IGLL1 (11728026_x_at) / Fold change /veh IGLL1 (11728026_x_at): dose or concentration left out as unconfirmed. As to conditions: ProbeSet 11727545_at; LIST B.

For `Nc1ncn([C@@H]2O[C@H](CO)[C@@H](O)[C@H]2O)c(=O)n1` [azacitidine], the “Fold change vs veh, PANK3” value was 0.85.

The values above are taken from article PMC5218480 (PLoS ONE, 2017).
